{"source": "patent US9771378B2", "about": "(Denali Therapeutics, Inc., priority 2014, dated 2017)", "test_system": "Aβ42 (human neuroglioma H4 cells expressing human wild type APP751)", "experiment": "In vitro cell screening assay with sandwich ELISA quantification of Aβ42 peptide", "format": "cell-based", "conditions": "H4 cells stably expressing human wild type APP751; Pro293 chemically defined medium; compounds 0.003-10 μM; incubated overnight (16-18 h); supernatant Aβ42 by sandwich ELISA; normalized to DMSO and DAPT; read-out: Aβ42 H4 Prot Fre IC50", "method": "Human neuroglioma H4 cells were transfected with a pcDNA3.1 plasmid expressing human wild type APP751 cDNA and a stable cell line was generated using G418 selection. Cells are plated at 15,000 cells/well in Costar 96-well plates and placed at 37° C. and 5% CO2. Six hours after plating, cells are washed three times with Pro293™ chemically defined medium, followed by addition of compounds (0.003-10 μM, final DMSO concentration of 0.33%). Plates were incubated overnight (16-18 h) and supernatant was removed for quantification of AP peptides by sandwich ELISA. Cytotoxicity was evaluated using Cell-Titer 96W AQueous One Solution Cell Proliferation Assay according to the manufacturer's protocol.\nELISA Measurements of Aβ Peptides\nAβ peptide levels were quantified by sandwich ELISA. 96-well plates are coated with C-terminal specific Aβ antibodies recognizing either Aβ37, Aβ38, Aβ40, Aβ42, Aβ43 or a N-terminal specific Aβ antibody to detect Aβ 1-x. Plates are then blocked overnight at 4° C. with 1% bovine serum albumin (BSA) in PBS-T. Plates are washed and 100 μl of cultured cell supernatant or synthetic Aβ peptide standards and a detection antibody (4G8-HRP) are applied to the blocked plate and incubated overnight at 4° C. The next day, wells are washed before the addition […] of detection substrate (TMB peroxidase). Plates are then read for absorbance at 450 nm on a Molecular Devices SpectraMax M5e Microplate Reader.\nIC50 values were calculated from values reported as percent of DMSO controls using nonlinear regression, based on a sigmoidal dose-response (variable slope) model. GraphPAD software from Prism used for calculation.", "data": [{"molecule": "Cc1cn(-c2ccc(Nc3ncc4c(n3)N(C)C(c3cc(F)c(F)cc3F)CO4)cc2F)cn1", "note": "(single isomer, unassigned; (+)) [Example 98A]", "values": [{"measurement": "IC50", "value": 20, "unit": "nM"}]}, {"molecule": "COc1cc(Nc2ncc3c(n2)N(C)C(c2cc(Cl)ccc2C(F)(F)F)CO3)ccc1-n1cnc(C)c1", "note": "(single isomer, unassigned; (-)) [Example 165B]", "values": [{"measurement": "IC50", "value": 79, "unit": "nM"}]}, {"molecule": "Cc1cn(-c2ncc(Nc3ncc4c(n3)N(C)C(c3cc(F)cc(F)c3)CO4)cc2Cl)cn1", "note": "(single isomer, unassigned; (+)) [Example 210A]", "values": [{"measurement": "IC50", "value": 41, "unit": "nM"}]}, {"molecule": "COc1nc(Nc2ncc3c(n2)N(C)C(c2cc(F)cc(F)c2)CO3)ccc1-c1ccnc(C)n1", "note": "(single isomer, unassigned; (+)) [Example 183A]", "values": [{"measurement": "IC50", "value": "> 3000", "unit": "nM"}]}, {"molecule": "Cc1cn(-c2ccc(Nc3ncc4c(n3)N(C)C(C3CCOCC3)CO4)cc2F)cn1", "note": "(single isomer, unassigned; (-)) [Example 109B]", "values": [{"measurement": "IC50", "value": "> 3000", "unit": "nM"}]}, {"molecule": "COc1cc(Nc2ncc3c(n2)N(C)C(c2cc(F)cc(F)c2)CO3)ncc1-n1cnc(C)c1", "note": "(single isomer, unassigned; (+)) [Example 220B]", "values": [{"measurement": "IC50", "value": 44, "unit": "nM"}]}, {"molecule": "COc1nc(Nc2ncc3c(n2)N(C)C(c2cc(F)c(F)c(F)c2)CO3)ccc1-n1cnc(C)c1", "note": "(single isomer, unassigned; (-)) [Example 188A]", "values": [{"measurement": "IC50", "value": "> 3000", "unit": "nM"}]}, {"molecule": "COc1cc(Nc2ncc3c(n2)N(C)C(c2cc(F)c(F)c(F)c2)CO3)ccc1-c1ccnc(C)c1", "note": "(single isomer, unassigned; (+)) [Example 39A]", "values": [{"measurement": "IC50", "value": 41, "unit": "nM"}]}, {"molecule": "COc1cc(Nc2ncc3c(n2)N(C)C(c2ccccc2C)CO3)ccc1-c1ccnc(C)c1", "note": "(single isomer, unassigned; (-)) [Example 35A]", "values": [{"measurement": "IC50", "value": 355, "unit": "nM"}]}, {"molecule": "Cc1cc(-c2ccc(Nc3ncc4c(n3)N(C)C(c3cc(F)cc(F)c3)CO4)cc2)ccn1", "note": "(single isomer, unassigned; (-)) [Example 28A]", "values": [{"measurement": "IC50", "value": 1960, "unit": "nM"}]}, {"molecule": "COc1cc(Nc2ncc3c(n2)N(C)C(C)CO3)ccc1-c1ccnc(C)c1", "note": "(single isomer, unassigned; (-)) [Example 110A]", "values": [{"measurement": "IC50", "value": 199, "unit": "nM"}]}, {"molecule": "Cc1cc(-c2ccc(Nc3ncc4c(n3)N(C)C(c3ccc(F)cc3F)CO4)cc2F)ccn1", "note": "(single isomer, unassigned; (-)) [Example 66B]", "values": [{"measurement": "IC50", "value": 1100, "unit": "nM"}]}, {"molecule": "COc1cc(Nc2ncc3c(n2)N2CC(F)(F)C[C@@H]2CO3)ccc1-n1cnc(C)c1", "note": "[Example 303, (R)-8,8-difluoro-N-(3-methoxy-4-(4-methyl-1H-imidazol-1-yl)phenyl)-6a, 7,8,9-tetrahydro-6H-pyrimido [5,4-b] pyrrolo [1,2-d] [1, 4] oxazin-2-amine]", "values": [{"measurement": "IC50", "value": 131, "unit": "nM"}]}, {"molecule": "COc1ccc(C2COc3cnc(Nc4ccc(-n5cnc(C)c5)c(OC)c4)nc3N2C)c(C)c1", "note": "(single isomer, unassigned; (+)) [Example 199A]", "values": [{"measurement": "IC50", "value": 25, "unit": "nM"}]}, {"molecule": "COc1cc(Nc2ncc3c(n2)N(C)C(c2ccccc2Cl)CO3)ccc1-n1cnc(C)c1", "note": "(single isomer, unassigned; (-)) [Example 51A]", "values": [{"measurement": "IC50", "value": 28, "unit": "nM"}]}, {"molecule": "COc1cc(Nc2ncc3c(n2)N(C)C(C(F)(F)F)CO3)ccc1-n1cnc(C)c1", "note": "(single isomer, unassigned; (-)) [Example 187B]", "values": [{"measurement": "IC50", "value": 33, "unit": "nM"}]}, {"molecule": "Cc1cn(-c2ccc(Nc3ncc4c(n3)N(C)C(C3CCOCC3)CO4)cc2F)cn1", "note": "(single isomer, unassigned; (+)) [Example 109A]", "values": [{"measurement": "IC50", "value": 212, "unit": "nM"}]}, {"molecule": "COc1cc(Nc2ncc3c(n2)N(C)C(c2ccc(Cl)cc2Cl)CO3)ccc1-n1cnc(C)c1", "note": "(single isomer, unassigned; (+)) [Example 95B]", "values": [{"measurement": "IC50", "value": 15, "unit": "nM"}]}, {"molecule": "COc1cc(Nc2ncc3c(n2)N(C)C(c2cc(F)c(F)c(F)c2)CO3)cnc1-n1cnc(C)c1", "note": "(single isomer, unassigned; (+)) [Example 182A]", "values": [{"measurement": "IC50", "value": 13, "unit": "nM"}]}, {"molecule": "COc1cc(Cl)c(C2COc3cnc(Nc4ccc(-n5cnc(C)c5)c(OC)c4)nc3N2C)cc1Cl", "note": "(racemic) [Example 89]", "values": [{"measurement": "IC50", "value": 23, "unit": "nM"}]}, {"molecule": "COc1cc(Nc2ncc3c(n2)N(C)C(Cc2ccccc2)CO3)ccc1-n1cnc(C)c1", "note": "(racemic) [Example 47]", "values": [{"measurement": "IC50", "value": 41, "unit": "nM"}]}, {"molecule": "COc1cc(Nc2ncc3c(n2)N(C)[C@@H](C2CC2)CO3)cnc1-n1cnc(C)c1", "note": "[Example 225]", "values": [{"measurement": "IC50", "value": 33, "unit": "nM"}]}]}
